In assay [1] the target is T1, rat MCH 1 receptor (rMCH1R) (Rattus norvegicus, UniProt P97639).
T1 construct: expressed in transfected cells; host or cells: HEK 293 (membranes)
In words: 125I-MCH ligand binding assay, rMCH. The following applies: HEK 293 membranes, 0.2 nM 125I native-MCH; 100 μM or less list; read-out: IC50 in the rMCH binding assay. As for the experimental part:
(§1) Human embryonic kidney cells (293 total) expressing either human, rat, or mouse MCH receptor were harvested from 150 mm culture dishes using PBS. Spinning at 1500 rpm for 2 minutes initially pelleted cells. The resulting pellet was then homogenized in 15 mL ice cold sucrose buffer (25 mM HEPES, 0.3 M sucrose, pH 7.4) with a motorized, glass fitted, Teflon® homogenizer. The homogenate was centrifuged at 48,000×g at 4° C. for 10 minutes, resuspended in 15 mL assay buffer (25 mM HEPES, 10 mM mgCl2, 0.2% BSA, 0.1 mg/mL STI, 0.1 mg/mL Pefabloc®, 1 μM Phosphoramidon, pH 7.4) with a Tissue-Tearor® (Biospec Products) and centrifuged again at 48,000×g for 10 minutes. The pellet was homogenized for a third time in 15 mL assay buffer using the Tissue-Tearor® and again centrifuged at 48,000×g for 10 minutes. The resulting pellet was resuspended in assay buffer at a wet weight concentration of 10-20 mg/mL.
(§2) Binding assays were determined as described below using mouse, rat or human MCH 1 receptors (mMCH1R, rMCH1R, and hMCH1R, respectively) expressed in HEK 293; IC50 values were calculated.
(§3) Binding assays were performed in 96-well U-bottom plates. Membranes (100 μg tissue) were incubated at 30° C. for 90 minutes in assay buffer with various peptides in the presence of 0.2 nM ^125I native-MCH (Perkin-Elmer Life Sciences, Boston, Mass.) in 100 μL total volume. Non-specific binding was assessed in the presence of 1 μM cold native-MCH. The reaction was terminated by rapid filtration through Unfilter-96 GF/C glass fiber filter plates (FilterMate® 196 Harvester, Packard Instrument Co., Meriden, Conn.) pre-soaked in PBS/0.5% BSA, followed by three washes with 300 μL ice-cold water. Bound radioactivity was determined using a TopCount® microplate scintillation and luminescence counter (Packard Instrument Co., Meriden, Conn.). Nonlinear regression analyses of drug concentration curves were performed using GraphPad Prism® (GraphPad Software, Inc., San Diego, Calif.).

Assay [2] addresses T2, human MCH 1 receptor (hMCH1R) (Homo sapiens, UniProt Q99705).
T2 construct: expressed in transfected cells; host or cells: HEK 293 (membranes)
In words: 125I-MCH ligand binding assay, hMCH. The conditions noted are these: HEK 293 membranes, 0.2 nM 125I native-MCH; 100 μM or less list; read-out: IC50 in the hMCH binding assay. As for the experimental part:
as §1, §2, §3

T2 sequence (Q99705 whole entry): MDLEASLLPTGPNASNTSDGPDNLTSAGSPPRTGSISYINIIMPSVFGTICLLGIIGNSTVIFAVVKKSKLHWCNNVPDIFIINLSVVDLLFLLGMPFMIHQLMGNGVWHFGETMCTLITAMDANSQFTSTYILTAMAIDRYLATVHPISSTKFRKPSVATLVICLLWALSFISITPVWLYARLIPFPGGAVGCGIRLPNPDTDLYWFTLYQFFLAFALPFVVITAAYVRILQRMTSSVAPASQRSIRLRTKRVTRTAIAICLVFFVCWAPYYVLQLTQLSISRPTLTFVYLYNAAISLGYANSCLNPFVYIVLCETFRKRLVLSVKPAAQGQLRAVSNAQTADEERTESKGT
T1 sequence (P97639 whole entry): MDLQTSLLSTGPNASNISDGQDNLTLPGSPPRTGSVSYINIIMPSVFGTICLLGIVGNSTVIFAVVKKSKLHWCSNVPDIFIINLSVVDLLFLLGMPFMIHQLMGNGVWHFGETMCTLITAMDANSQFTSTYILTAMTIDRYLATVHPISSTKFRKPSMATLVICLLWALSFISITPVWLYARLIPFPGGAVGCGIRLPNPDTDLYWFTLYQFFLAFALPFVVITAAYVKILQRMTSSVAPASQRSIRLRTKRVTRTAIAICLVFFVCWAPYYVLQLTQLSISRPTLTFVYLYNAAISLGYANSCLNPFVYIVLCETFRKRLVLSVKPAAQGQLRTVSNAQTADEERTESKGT

`CC(C)(C)n1nnnc1[C@H](c1ccccc1)N1CCN(C/C=C/c2ccccc2)CC1` (racemic) [Compound 14, 1-[(1-tert-butyl-1H-tetrazol-s-yl)phenylmethyl]-4-(3-phenylallyl)piperazine]: the IC50 in assay [1] and in assay [2] was at most 100 µM each time.
As for `C(=C\c1ccccc1)/CN1CCN([C@@H](c2ccccc2)c2nnnn2Cc2ccccc2)CC1` (racemic) [Compound 15, 1-[(1-benzyl-1H-tetrazol-5-yl)phenylmethyl]-4-(3-phenylallyl)piperazine], the half-inhibitory concentration (IC50) in assay [1] and in assay [2] was at most 100 µM each time.
For `COC(=O)Cn1nnnc1[C@H](c1ccccc1)N1CCN(C/C=C/c2ccccc2)CC1` (racemic) [Compound 16, (5-{phenyl-[4-(3-phenylallyl)piperazin-1-yl]methyl}tetrazol-1-yl)acetic acid methyl ester], in assay [2], the IC50 is at most 100 µM.
For `CCCCn1nnnc1[C@H](c1ccccc1)N1CCN(C/C=C/c2ccccc2)CC1` (racemic) [Compound 17, 1-[(1-butyl-1H-tetrazol-5-yl)phenylmethyl]-4-(3-phenylallyl)piperazine], the IC50 in assay [2] was at most 100 µM.
As to `CC(C)n1nnnc1[C@H](c1ccccc1)N1CCN(C/C=C/c2ccccc2)CC1` (racemic) [Compound 19, 1-[(1-isopropyl-1H-tetrazol-5-yl)phenylmethyl]-4-(3-phenylallyl)piperazine], the half-maximal inhibitory concentration (IC50) in assay [1] and in assay [2] was at most 100 µM throughout.
As to `CCOC(=O)Cn1nnnc1[C@H](c1ccccc1)N1CCN(C/C=C/c2ccccc2)CC1` (racemic) [Compound 21], the IC50 in assay [1] and in assay [2] was at most 100 µM in each case.
As to `CC(C)(C)CC(C)(C)n1nnnc1[C@H](c1ccccc1)N1CCN(C/C=C/c2ccccc2)CC1` (racemic) [Compound 22, 1-(3-phenylallyl)-4-{phenyl-[1-(1,1,3,3-tetramethylbutyl)-1H-tetrazol-5-yl]methyl}piperazine], the IC50 in assay [1] and in assay [2] was at most 100 µM each time.
For the compound `C(=C\c1ccccc1)/CN1CCN([C@@H](c2ccccc2)c2nnnn2CCc2c[nH]c3ccccc23)CC1` (racemic) [Compound 29, 3-[2-(5-{phenyl-[4-(3-phenylallyl)piperazin-1-yl]methyl}tetrazol-1-yl)ethyl]-1H-indole], the IC50 in assay [1] and in assay [2] was at most 100 µM in each case.
For the compound `Clc1ccc(Cn2nnnc2[C@H](c2ccccc2)N2CCN(C/C=C/c3ccccc3)CC2)cc1Cl` (racemic) [Compound 30, 1-{[1-(3,4-dichlorobenzyl)-1H-tetrazol-5-yl]phenylmethyl}-4-(3-phenylallyl)piperazine], the half-maximal inhibitory concentration (IC50) in assay [1] and in assay [2] was at most 100 µM in each case.
As for `C(=C\c1ccccc1)/CN1CCN([C@@H](c2ccccc2)c2nnnn2CCc2ccccc2)CC1` (racemic) [Compound 35, 1-[(1-phenethyl-1H-tetrazol-5-yl)phenylmethyl]-4-(3-phenylallyl) piperazine], the IC50 in assay [1] and in assay [2] was at most 100 µM in each case.
`O=C1CCCN1CCCn1nnnc1[C@H](c1ccccc1)N1CCN(C/C=C/c2ccccc2)CC1` (racemic) [Compound 36, 1-[3-(5-{phenyl-[4-(3-phenylallyl)piperazin-1-yl]methyl}tetrazol-1-yl)propyl]pyrrolidin-2-one]: the 50% inhibitory concentration (IC50) in assay [1] and in assay [2] was at most 100 µM in each case.
As for `C(=C\c1ccccc1)/CN1CCN([C@@H](c2ccccc2)c2nnnn2-c2cccc3c2CCCC3)CC1` (racemic) [Compound 38, 1-(3-phenylallyl)-4-{phenyl-[1-(5,6,7,8-tetrahydronaphthalen-1-yl)-1H-tetrazol-5-yl]methyl}piperazine], the IC50 in assay [1] and in assay [2] was at most 100 µM throughout.
In the case of `Clc1ccc(CCn2nnnc2[C@H](c2ccccc2)N2CCN(C/C=C/c3ccccc3)CC2)cc1` (racemic) [Compound 39, 1-({1-[2-(4-chlorophenyl)ethyl]-1H-tetrazol-5-yl}phenylmethyl)-4-(3-phenylallyl)piperazine], the IC50 in assay [1] and in assay [2] was at most 100 µM throughout.
Take `C(=C\c1ccccc1)/CN1CCN([C@@H](c2ccccc2)c2nnnn2CCCN2CCOCC2)CC1` (racemic) [Compound 42]: the IC50 in assay [2] was at most 100 µM.
Regarding `Cc1cccc(C)c1-n1nnnc1[C@H](c1cccc2ccccc12)N1CCN(C/C=C/c2ccccc2)CC1` (racemic) [Compound 46, 1-{[1-(2,6-dimethyiphenyl)-1H-tetrazol-5-yl]naphthalen-1-ylmethyl}-4-(3-phenylallyl)piperazine], the IC50 in assay [1] and in assay [2] was at most 100 µM each time.
On to `Cc1cccc(C)c1-n1nnnc1[C@H](c1ccc(/C=C/c2ccccc2)cc1)N1CCN(C/C=C/c2ccccc2)CC1` (racemic) [Compound 52, 1-[[1-(2,6-dimethylphenyl)-1H-tetrazol-5-yl]-(4-styrylphenyl)methyl]-4-(3-phenylallyl)piperazirie], for which the 50% inhibitory concentration (IC50) in assay [1] and in assay [2] was at most 100 µM in each case.
Take `Cc1cccc(C)c1-n1nnnc1[C@H](c1ccc(F)cc1)N1CCN(C/C=C/c2ccccc2)CC1` (racemic) [Compound 58, 1-[[1-(2,6-dimethylphenyl)-1H-tetrazol-5-yl]-(4-fluorophenyl)methyl]-4-(3-phenylallyl)piperazine]: the half-inhibitory concentration (IC50) in assay [1] and in assay [2] was at most 100 µM throughout.
Regarding `Cc1cccc(C)c1-n1nnnc1[C@H](c1ccc(C(F)(F)F)cc1)N1CCN(C/C=C/c2ccccc2)CC1` (racemic) [Compound 63, 1-[[1-(2,6-dimethylphenyl)-1H-tetrazol-5-yl]-(4-trifluoromethylphenyl)methyl]-4-(3-phenylallyl)piperazine], the IC50 in assay [1] and in assay [2] was at most 100 µM each time.
Take `Cc1cccc(C)c1-n1nnnc1[C@H](c1ccccc1OCc1ccccc1)N1CCN(C/C=C/c2ccccc2)CC1` (racemic) [Compound 66, 1-{(2-benzyloxyphenyl)-[1-(2,6-dimethylphenyl)-1H-tetrazol-5-yl]methyl}-4-(3-phenylallyl)piperazine]: in assay [2], the half-inhibitory concentration (IC50) was at most 100 µM.
Still for that read-out and setting: the result for `COc1ccccc1[C@@H](c1nnnn1-c1c(C)cccc1C)N1CCN(C/C=C/c2ccccc2)CC1` (racemic) [Compound 67, 1-[[1-(2,6-dimethylphenyl)-1H-tetrazol-5-yl]-(2-methoxyphenyl)methyl]-4-(3-phenylallyl)piperazine] reads at most 100 µM.
Consider `Cc1cccc(C)c1-n1nnnc1[C@H](c1ccc(-c2cccc(C(F)(F)F)c2)o1)N1CCN(C/C=C/c2ccccc2)CC1` (racemic) [Compound 68, 1-{[1-(2,6-dimethylphenyl)-1H-tetrazol-5-yl]-[5-(3-trifluoromethylphenyl)furan-2-yl]methyl}-4-(3-phenylallyl)piperazine], for which the IC50 in assay [1] and in assay [2] was at most 100 µM in each case.
In the case of `Cc1cccc(C)c1-n1nnnc1[C@H](COCCc1ccccc1)N1CCN(C/C=C/c2ccccc2)CC1` (racemic) [Compound 85, 1-{1-[1-(2,6-dimethylphenyl)-1H-tetrazol-5-yl]-2-phenethyloxyethyl}-4-(3-phenylallyl)piperazine], in assay [2], the concentration for half-maximal inhibition (IC50) is at most 100 µM.
With `Cc1cccc(C)c1-n1nnnc1C1(N2CCN(C/C=C/c3ccccc3)CC2)CCN(Cc2ccccc2)CC1` [Compound 91, 1-{1-benzyl-4-[1-(2,6-dimethylphenyl)-1H-tetrazol-5-yl]piperidin-4-yl}-4-(3-phenylallyl)piperazine], the half-maximal inhibitory concentration (IC50) in assay [2] is at most 100 µM.

These data come from patent publication US7514438B2, “Melanin concentrating hormone receptor antagonist” (Amgen, Inc., priority 2003, dated 2009).
